How the values were obtained:
[1] = tested on: Lactobacillus crispatus; test: Lactobacillus growth sensitivity assay; format: cell-based; conditions: 24 h growth, OD 490 nm
Method: (§1) Lactobacillus crispatus and Lactobacillus jensenii were obtained from the American Type Tissue Culture Collection and grown in Lactobacilli MRS broth (Difco, Fisher Scientific, Pittsburgh, Pa.). This medium allows efficient growth of the Lactobacilli under anaerobic conditions. Bacillus stocks are produced and frozen in 15% glycerol at −80° C. for use in the sensitivity assay. To assess the effect of compounds on L. crispatus and L. jensenii growth, 10 ml of MRS media is inoculated with a stab from the glycerol bacterial stock. The culture is placed in a Gas Pak CO2 bag and incubated for 24 h at 37° C. The next day the lactobacillus cultures are diluted to an OD of 0.06 at a wavelength of 670 nm. Compounds are diluted and placed into a 96 well flat bottomed plate and the Lactobacillus sp. added. Commercially available Penicillin/Streptomycin solution at a high test concentration of 1.25 U/ml and 1.25 µg/ml, respectively, are used as the positive control. The plates are again incubated for 24 h at 37° C. in a Gas Pak CO2 bag and bacterial growth determined by measurement of optical density at 490 nm in a molecular devices plate reader. All determinations are performed with 6½ log dilutions from a high test concentration in triplicate.

[2] = tested on: Lactobacillus jensenii; test: Lactobacillus growth sensitivity assay; format: cell-based; conditions: 24 h growth, OD 490 nm
Method: as §1

[3] = tested on: IIIB strain of HIV; format: cell-based, HIV-1; conditions: HeLa CD4 LTR […]-gal cells
Method: At 24 h media is removed and compound in media placed on the cells and incubated for 15 min at 37° C.

[4] = tested on: GHOST(3) X4/R5 cell line; test: XTT cell viability in the CD4-dependent transmission assay; format: cell-based, human
Method: The […] is carried out essentially as described for the CD4-independent transmission assay except for the use of the CD4 positive GHOST(3) X4/R5 cell line. This cell line is derived from the HOS (human osteosarcoma) cell line that is negative for HIV coreceptor and CD4 expression. The cell line is engineered to express T4 (CD4), R5 and X4 via non-selectable retroviral vectors and an HIV-2 LTR hGFP construct with a hygromycin selectable marker. The cell lines are handled and cultured as described above for the CD4-independent HIV inhibition assay, with the exception that 2.5×10^4 GHOST(3) X4/R5 and 5×10^2 mitomycin C treated H9/SK-1 cells are used in the assay. Addition of compounds, mitomycin C treatment and post-transmission washing to remove the H9/SK-1 cells are performed as described above to allow comparability of the two antiviral assays. Virus replication is assessed at 24 h post infection, following 3 washes, by measurement of cell-associated p24 by ELISA to ensure a single round of infection in the presence of CD4. Compound toxicity and cell viability are assessed by XTT dye reduction.

[5] = tested on: HeLa CD4 LTR […]-gal cells; test: XTT toxicity on sister plate of the attachment assay; format: cell-based
Method: This assay is designed to detect compounds that interact with the cell and block virus attachment, and/or compounds which interact with the forming attachment/fusion complex. The attachment assay is performed with HeLa CD4 LTR […]-gal cells. HeLa CD4 LTR […]-gal cells are routinely cultured with the required selection antibiotics. Twenty-four h prior to initiation of the assay the cells are trypsinized, counted and 1×10^4 cells placed in a 0.2 cm well in media without selection antibiotics. At 24 h media is removed and compound in media placed on the cells and incubated for 15 min at 37° C. A known titer of the IIIB strain of HIV is then added to the wells and the incubation continued for 1 h. At the end of the incubation the wells are washed 3 times with media and the culture continued for 40 to 48 h. At termination of the assay, media is removed and […]-galactosidase enzyme expression determined by chemiluminescence per manufacturers instructions (Tropix Gal-screen™, Bedford Mass.) by a single step chemiluminescent method using a single solution to lyse the cells and detect […]-galactosidase enzyme activity. Compound toxicity is monitored on a sister plate by XTT dye reduction. […] The virus adsorption interval of 1 h is sufficiently short that AZT, which requires phosphorylation to its active tri-phosphate form (AZT-TTP), is not active in this assay.

[6] = tested on: ME180 cells; test: XTT cell viability in the CD4-independent transmission assay
Method: ME180 cells, a CD4 negative, X4 positive cervical epithelial cell line is maintained in RPMI 1640 supplemented with 10% fetal bovine serum, glutamine and antibiotics. Twenty-four h prior to the assay ME180 cells are trypsonized, washed and seeded in 96-well flat bottom microtiter plates at a density of 2×10^3 cells per well. On the day of the assay, H9 cells chronically infected with the SK1 clinical isolate of HIV-1 (H9-SK1) are treated with freshly made mitomycin C (200 μg/ml) for 60 minutes at 37° C. This concentration of mitomycin C is sufficient to result in cell death, but allows virus transmission to occur. After mitomycin C treatment the H9-SK1 cells are washed three times with tissue culture medium. Test compounds are added to the ME180 monolayer followed by 2×10^4 H9-SK1 cells. The ME180 cells are co-cultured with H9-SK-1 cells and test material for 4 h, and the H9-SK1 cells are removed by washing the ME180 monolayer three times with PBS. At 24 and 48 h post assay initiation the wells are again washed three times with PBS to ensure removal of the H9-SK1 cells, and culture continued in test material free media. At six days post-co-cultivation, supernatants are collected and evaluated for p24 antigen expression by ELISA. Cell viability is assessed by XTT dye reduction. […] Testing in the presence of mucin is carried out by addition of 200 µg/ml of porcine mucin (Sigma Chemical Co., St Louis, Mo.) to the transmission reactions. Transmission intervals and washing without replacement of mucin or compound are carried as described above. All determinations are performed in triplicate with serial ½ Log10 dilution of the test materials.
TC50 values for the test materials are derived by measuring the reduction of the tetrazolium dye XTT (2,3-bis(2-methoxy-4-nitro-5-sulfophenyl)-5-[(phenylamino)carbonyl]-2H-tetrazolium hydroxide) in replicate microtiter plates containing cell and compound without virus. […] XTT solution is prepared daily as a stock of 1 mg/mL in PBS. Phenazine methosulfate (PMS) solution is prepared at 15 mg/mL in PBS and stored in the dark at −20° C. XTT/PMS stock is prepared immediately before use by diluting the PMS 1:100 into PBS and adding 40 µl per mL of XTT solution. Fifty microliters of XTT/PMS are added to each well of the plate and the plate incubated for 4 h at 37° C. The 4 h incubation has been empirically determined to be within the linear response range for […] dye reduction with the indicated numbers of cells for each assay. Adhesive plate sealers are used in place of the lids, the sealed plate is inverted several times to mix the soluble formazan product and the plate is read at 450 nm with a Molecular Devices Vmax 96 well plate format spectrophotometer.
Dextran sulfate (positive) and dextran (negative) are used as controls for the CD4-dependent and CD4-independent HIV transmission inhibition assays. […] Commercially available Penicillin (10,000 U/ml) Streptomycin (10.0 mg/ml) solution is used as a positive control for the Lactobacillus sensitivity assay.

Substance: BHAlyslys2lys4lys8lys16[NH—CO—CH2)O-3,6-Naphthyl-(SO3Na)2]32 [SPL-7013]
- L. crispatus (ID50) [1]: >100 µg/mL
- L jensenii (ID50) [2]: >100 µg/mL
- Attachment Assay IC50 [3]: 0.57 µg/ml
- CD4-Dependent Transmission Assay TC50 [4]: >100 µg/mL
- Attachment Assay TC50 [5]: >100 µg/mL
- CD4-Independent Transmission Assay TC50 [6]: >100 µg/mL

— patent publication US8158575B2, “Agent for the prevention and treatment of sexually transmitted diseases-I” (priority 2001, dated 2012)
